Test results taken from PubChem BioAssay (NCI).
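A five-concentration, 48-hour dose response in 96-well plates underlies each endpoint, interpolated linearly between surrounding concentrations. GI50 is the concentration that inhibits growth by half. The concentration for full growth arrest is given as TGI.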

Experiments:
Test in all cases: NCI tumour cell line growth inhibition, 48 h
[1] = test system: MDA-MB-435
[2] = test system: HCC-2998 colon
[3] = test system: NCI-H23 lung
[4] = test system: SN12C renal
[5] = test system: KM12 colon
[6] = test system: NCI-H226 lung
[7] = test system: K-562 leukemia
[8] = test system: HCT-116 colon
[9] = test system: HCT-15 colon
[10] = test system: COLO 205 colon
[11] = test system: SK-MEL-5 melanoma
[12] = test system: OVCAR-8 ovarian
[13] = test system: SK-MEL-2 melanoma
[14] = test system: SK-OV-3 ovarian
[15] = test system: SK-MEL-28 melanoma
[16] = test system: PC-3 prostate
[17] = test system: 786-0 renal
[18] = test system: MOLT-4 leukemia
[19] = test system: UACC-257 melanoma
[20] = test system: NCI-H460 lung
[21] = test system: M14 melanoma
[22] = test system: HL-60(TB) leukemia
[23] = test system: MALME-3M melanoma
[24] = test system: MDA-MB-231 breast
[25] = test system: OVCAR-3 ovarian
[26] = test system: IGROV1 ovarian
[27] = test system: TK-10 renal
[28] = test system: MCF7 breast
[29] = test system: SF-539 CNS
[30] = test system: CAKI-1 renal
[31] = test system: OVCAR-4 ovarian
[32] = test system: SR leukemia
[33] = test system: SF-295 CNS
[34] = test system: CCRF-CEM leukemia
[35] = test system: HT29 colon
[36] = test system: RPMI-8226 leukemia
[37] = test system: RXF 393 renal
[38] = test system: LOX IMVI melanoma
[39] = test system: NCI/ADR-RES ovarian
[40] = test system: DU-145 prostate
[41] = test system: T-47D breast
[42] = test system: BT-549 breast
[43] = test system: HS 578T breast
[44] = test system: A549 NSCLC
[45] = test system: ACHN renal
[46] = test system: SF-268 CNS
[47] = test system: OVCAR-5 ovarian
[48] = test system: U251 CNS
[49] = test system: UO-31 renal
[50] = test system: SNB-75 CNS
[51] = test system: EKVX NSCLC
[52] = test system: UACC-62 melanoma
[53] = test system: HOP-62 NSCLC
[54] = test system: SNB-19 CNS
[55] = test system: SW-620 colon
[56] = test system: A498 renal
[57] = test system: HOP-92 NSCLC
[58] = test system: NCI-H522 lung

## COc1ccc(-c2nn(C(=O)c3cc(OC)c(OC)c(OC)c3)c3cc(N)ccc23)cc1
[1]
  GI50: < 10 nM
[2]
  GI50: 34.9 nM
  TGI: 3790 nM
[3]
  GI50: 29.2 nM
  TGI: 15700 nM
[4]
  GI50: < 16.2 nM
  TGI: 10800 nM
[5]
  GI50: < 10 nM
  TGI: 1830 nM
[6]
  GI50: 150 nM
  TGI: 6710 nM
[7]
  GI50: < 10 nM
  TGI: 10500 nM
[8]
  GI50: < 10 nM
  TGI: 1450 nM
[9]
  GI50: < 10 nM
  TGI: 7210 nM
[10]
  GI50: 21.7 nM
  TGI: 48.9 nM
[11]
  GI50: < 14.5 nM
  TGI: 45.3 nM
[12]
  GI50: < 15.6 nM
  TGI: 7280 nM
[13]
  GI50: 2550 nM
  TGI: 27600 nM
[14]
  GI50: 31.6 nM
  TGI: 7280 nM
[15]
  GI50: 1760 nM
  TGI: 24300 nM
[16]
  GI50: < 24.1 nM
  TGI: > 30300 nM
[17]
  GI50: < 19.1 nM
  TGI: 3630 nM
[18]
  GI50: 38.2 nM
  TGI: 23700 nM
[19]
  GI50: 5540 nM
  TGI: 39300 nM
[20]
  GI50: < 11.2 nM
  TGI: 1740 nM
[21]
  GI50: < 11.8 nM
  TGI: 19500 nM
[22]
  GI50: < 12.1 nM
  TGI: < 22 nM
[23]
  GI50: 2030 nM
  TGI: 14800 nM
[24]
  GI50: 13.3 nM
  TGI: 12900 nM
[25]
  GI50: < 10 nM
[26]
  GI50: 20.7 nM
  TGI: 15900 nM
[27]
  GI50: 6090 nM
  TGI: 27400 nM
[28]
  GI50: 22.6 nM
  TGI: 2190 nM
[29]
  GI50: < 10 nM
  TGI: 1240 nM
[30]
  GI50: 14.5 nM
  TGI: 8390 nM
[31]
  GI50: < 19.5 nM
  TGI: 12900 nM
[32]
  GI50: < 10 nM
[33]
  GI50: < 10 nM
  TGI: 1750 nM
[34]
  GI50: 24.9 nM
  TGI: 14300 nM
[35]
  GI50: < 14.2 nM
  TGI: 1130 nM
[36]
  GI50: < 18 nM
  TGI: 1840 nM
[37]
  GI50: < 10 nM
  TGI: 3980 nM
[38]
  GI50: < 10 nM
  TGI: 5540 nM
[39]
  GI50: < 10 nM
  TGI: 2280 nM
[40]
  GI50: < 13 nM
  TGI: 345 nM
[41]
  GI50: 2170 nM
  TGI: 7580 nM
[42]
  GI50: < 17.5 nM
  TGI: 9560 nM
[43]
  GI50: < 17.9 nM
  TGI: 39000 nM
[44]
  GI50: < 14.6 nM
  TGI: 3960 nM
[45]
  GI50: < 15.1 nM
  TGI: 2670 nM
[46]
  GI50: < 14.8 nM
  TGI: 4430 nM
[47]
  GI50: 1540 nM
  TGI: 27300 nM
[48]
  GI50: < 10 nM
  TGI: 1870 nM
[49]
  GI50: < 19.6 nM
  TGI: 5050 nM
[50]
  GI50: < 12.2 nM
  TGI: 7760 nM
[51]
  GI50: < 18.7 nM
  TGI: 51300 nM
[52]
  GI50: < 10 nM
  TGI: 15300 nM
[53]
  GI50: < 15.3 nM
  TGI: 6330 nM
[54]
  GI50: < 17.1 nM
  TGI: > 100000 nM
[55]
  GI50: < 10 nM
  TGI: 23400 nM
[56]
  GI50: < 10 nM
  TGI: < 17.1 nM
[57]
  GI50: 1860 nM
  TGI: 25800 nM
[58]
  GI50: < 10 nM
  TGI: 1120 nM

## CCOc1ccc(-n2cc(-c3ccc(N(C)C)cc3)[n+]3c2CCCCC3)cc1
[1]
  GI50: 217 nM
  TGI: 14400 nM
[2]
  GI50: 188 nM
  TGI: > 100000 nM
[3]
  GI50: 93.5 nM
  TGI: > 43000 nM
[4]
  GI50: 891 nM
  TGI: 19000 nM
[5]
  GI50: 168 nM
  TGI: 27800 nM
[6]
  GI50: 1560 nM
  TGI: > 100000 nM
[7]
  GI50: 128 nM
  TGI: > 100000 nM
[8]
  GI50: 267 nM
  TGI: > 100000 nM
[9]
  GI50: 10100 nM
  TGI: > 100000 nM
[10]
  GI50: 197 nM
  TGI: 1730 nM
[11]
  GI50: 95.8 nM
  TGI: 475 nM
[12]
  GI50: 1340 nM
  TGI: > 100000 nM
[13]
  GI50: 286 nM
  TGI: 6320 nM
[14]
  GI50: 1610 nM
  TGI: 7410 nM
[15]
  GI50: 841 nM
  TGI: > 81900 nM
[16]
  GI50: 277 nM
  TGI: > 100000 nM
[17]
  GI50: 2690 nM
  TGI: > 100000 nM
[18]
  GI50: 1000 nM
  TGI: 26500 nM
[19]
  GI50: 120 nM
  TGI: 2440 nM
[20]
  GI50: 349 nM
  TGI: > 38000 nM
[21]
  GI50: 1460 nM
  TGI: 33800 nM
[22]
  GI50: 164 nM
  TGI: 1530 nM
[23]
  GI50: 269 nM
  TGI: 14100 nM
[24]
  GI50: 1930 nM
  TGI: > 27800 nM
[25]
  GI50: 377 nM
  TGI: 60200 nM
[26]
  GI50: 923 nM
  TGI: > 100000 nM
[27]
  GI50: 827 nM
  TGI: 49000 nM
[28]
  GI50: 140 nM
  TGI: > 100000 nM
[29]
  GI50: 2260 nM
  TGI: > 100000 nM
[30]
  GI50: 10400 nM
  TGI: > 100000 nM
[31]
  GI50: 103 nM
  TGI: > 100000 nM
[32]
  GI50: 978 nM
  TGI: 29400 nM
[33]
  GI50: 618 nM
  TGI: 5430 nM
[34]
  GI50: 1080 nM
  TGI: > 100000 nM
[35]
  GI50: 609 nM
  TGI: > 24700 nM
[36]
  GI50: 56.7 nM
  TGI: > 24900 nM
[37]
  GI50: 4510 nM
  TGI: > 90300 nM
[38]
  GI50: 359 nM
  TGI: > 65600 nM
[39]
  GI50: 31100 nM
  TGI: > 100000 nM
[40]
  GI50: 1820 nM
  TGI: > 100000 nM
[41]
  GI50: 69.2 nM
[42]
  GI50: 406 nM
  TGI: 29100 nM
[43]
  GI50: 3330 nM
  TGI: > 100000 nM
[44]
  GI50: 1880 nM
  TGI: > 100000 nM
[45]
  GI50: 2630 nM
  TGI: > 100000 nM
[46]
  GI50: 2200 nM
  TGI: > 100000 nM
[47]
  GI50: 3740 nM
  TGI: > 100000 nM
[48]
  GI50: 312 nM
  TGI: > 100000 nM
[49]
  GI50: 4940 nM
  TGI: 68500 nM
[50]
  GI50: 906 nM
  TGI: 17700 nM
[51]
  GI50: 244 nM
  TGI: > 100000 nM
[52]
  GI50: 199 nM
  TGI: 13500 nM
[53]
  GI50: 2300 nM
  TGI: > 77900 nM
[54]
  GI50: 452 nM
  TGI: > 100000 nM
[55]
  GI50: 2210 nM
  TGI: > 100000 nM
[56]
  GI50: 1220 nM
  TGI: 8440 nM
[57]
  GI50: 1140 nM
  TGI: 6430 nM
[58]
  GI50: 125 nM
  TGI: 3910 nM
